Experiments:
Assay type in all cases: in vivo
[1] = system: timothy (Phleum pratense L.); test: Test Example 4: growth inhibition of timothy after foliar treatment (pot test); settings: compound A 100 g/ha, compound B not added; sixth day after treatment
Description: (§1) On the seventh day after treatment, the state of growth of the wheat was visually observed to determine the growth inhibition rate (%) in accordance with the following evaluation standards. The results are shown in Table 1. • Growth inhibition rate (%)=0 (equivalent to the non-treated area) to 100 (complete kill)
Upland field soil was put into a 1/1,000,000 ha pot, and seeds of timothy (Phleum pratense L.) were sown. When the timothy reached 1.6 to 2.0-leaf stage, predetermined amounts of compound A and isoxadifen-ethyl, mefenpyr-diethyl or cloquintocet-mexyl were diluted with water (in an amount corresponding to 300 L/ha) containing 0.5 vol % of an agricultural adjuvant (tradename: Destiny HC, manufactured by Winfield Solutions, LLC) and applied for foliar treatment by a small sprayer.
On the sixth day after treatment, the state of growth of the timothy was visually observed to evaluate the growth inhibition rate (%) in the same manner as in the above Test Example 1.

[2] = system: kentucky bluegrass (Poa pratensis L.); test: Test Example 6: chlorosis in kentucky bluegrass after foliar treatment (pot test); settings: compound A 100 g/ha, compound B not added; seventh day after treatment; degree 0 to 5.0
Method: Degree of chlorosis=0 (equal to the non-treated area) to 5.0 (complete chlorosis)
Upland field soil was put into a 1/1,000,000 ha pot, and seeds of kentucky bluegrass (Poa pratensis L.) were sown. When the kentucky bluegrass reached 2-leaf stage, predetermined amounts of compound A and isoxadifen-ethyl, mefenpyr-diethyl or cloquintocet-mexyl were diluted with water (in an amount corresponding to 300 L/ha) containing 0.5 vol % of an agricultural adjuvant (tradename: Destiny HC, manufactured by Winfield Solutions, LLC) and applied for foliar treatment by a small sprayer.
On the seventh day after treatment, chlorosis which developed in the kentucky bluegrass was evaluated in the same manner as in the above Test Example 2.

[3] = system: perennial ryegrass (Lolium perenne L.); test: Test Example 3: chlorosis in perennial ryegrass after foliar treatment (pot test); settings: compound A 100 g/ha, compound B not added; sixth day after treatment; degree 0 to 5.0
Description: Degree of chlorosis=0 (equal to the non-treated area) to 5.0 (complete chlorosis) Upland field soil was put into a 1/1,000,000 ha pot, and seeds of perennial ryegrass (Lolium perenne L.) were sown. […] Destiny HC, manufactured by Winfield Solutions, LLC.) and applied for foliar treatment by a small sprayer.

[4] = system: wheat (Triticum aestivum L.); test: Test Example 1: growth inhibition of wheat after foliar treatment (pot test); settings: compound B not added, seventh day after treatment
Description: Upland field soil was put into a 1/1,000,000 ha pot, and seeds of wheat (Triticum aestivum L.) were sown. […] Destiny HC, manufactured by Winfield Solutions, LLC.) and applied for foliar treatment by a small sprayer. On the seventh day after treatment, the state of growth of the wheat was visually observed to determine the growth inhibition rate (%) in accordance with the following evaluation standards.

[5] = system: bentgrass (Agrostis stolonifera L.); test: Test Example 5: growth inhibition of bentgrass after foliar treatment (pot test); settings: compound A 100 g/ha, compound B not added; 24th day after treatment
Description: as §1
Upland field soil was put into a 1/1,000,000 ha pot, and turf of bentgrass (Agrostis stolonifera L.) was put. When the bentgrass reached a height of […], predetermined amounts of compound A and mefenpyr-diethyl or cloquintocet-mexyl were diluted with water (in an amount corresponding to 300 L/ha) containing 0.5 vol % of an agricultural adjuvant (tradename: Destiny HC, manufactured by Winfield Solutions, LLC) and applied for foliar treatment by a small sprayer.
On the 24th day after treatment, the state of growth of the bentgrass was visually observed to determine the growth inhibition rate (%) in the same manner as in the above Test Example 1.

CCn1ncc(C(=O)c2ccc(S(C)(=O)=O)c(OCCOC)c2C)c1OC(C)OC(=O)OC (stereo not drawn) [Compound A, 1-(1-ethyl-4-(3-(2-methoxyethoxy)-2-methyl-4-(methylsulfonyl)benzoyl)-1H-pyrazol-5-yloxy)ethyl methyl carbonate]
Growth inhibition rate (%) of timothy [1]: 10%
Chlorosis in kentucky bluegrass [2]: 1.7
Chlorosis in perennial ryegrass [3]: 0.4
Growth inhibition rate (%) of wheat ([4]; compound A 100 g/ha): 40%
Growth inhibition rate (%) of wheat ([4]; compound A 150 g/ha): 40%
Growth inhibition of bentgrass (%) [5]: 50%

Reference: US9775354B2, “Herbicidal composition having improved plant safety” (priority 2013, dated 2017)
